Source: patent publication US20250002483A1, “S[…]-ALANINATE DERIVATIVES” (Bayer Aktiengesellschaft, priority 2021, published 2025)

Test: physchem
Conditions: 25 °C, pH 4, aqueous buffer, thermodynamic from solid
Protocol: 25 mg compound are placed in 2 ml solvent. […] Thereafter, the solution or suspension is filtered and the remaining solution is analyzed via HPLC. The solubility is determined by comparison of the total area of the substance peak to a calibration curve (external standard).
Thereafter, the solution was centrifuged and analyzed via HPLC. The solubility was determined by comparison of the total area of the substance peak to a calibration curve (external standard). The measurements were conducted in triplicates.

In the case of `CCc1c(N2CC[C@H](O)C2=O)cccc1S(=O)(=O)N[C@@H](CNC(=O)c1ccc(Cl)s1)C(=O)OCCc1nccn1C.Cl` [Example 2, 2-(1-Methyl-1H-imidazol-2-yl)ethyl 3-[(5-chlorothiophene-2-carbonyl)amino]-N-{2-ethyl-3-[(3S)-3-hydroxy-2-oxopyrrolidin-1-yl]benzene-1-sulfonyl}-S-alaninate hydrochloride], the solubility is reported as > 500 mg/mL.
